3 compounds from patent publication US6613738B1, “Cyclic lipopeptide from Cryptosporiopsis quercina possessing antifungal activity” (HMV Corporation, priority 1998, dated 2003) can be followed below.

One assay has as its system Candida parasilopsis. Kind of assay: MIC, microbroth dilution assay (NCCLS). Format: cell-based. In general terms: In broth dilution the organism is exposed to a series of concentrations in liquid medium.
The subject of the next assay is Histoplasma capsulatum. In kind it is cell-based.
Another assay relates to Candida albicans. Kind of assay: MIC, microbroth dilution assay (NCCLS). Format: cell-based.
The subject of the next assay is Cryptococcus neoformans. In words: MIC, microbroth dilution assay (NCCLS). In kind it is cell-based.
In another assay the test system is Aspergillus fumigatus. In words: MIC, microbroth dilution assay (NCCLS). Format: cell-based.
In another assay the test system is nail and skin infections. In words: Nail and skin infections with human volunteers. Format: in vivo.

Numbered stars: 1 amine (or outer) side, 2 acyl side, 3 side chain; on linkers, the order of the positions; unused ones are H or OH. Bridge positions count the residues as written; N and C are the ends. Square brackets hold non-standard residues; d marks the D form. Peptide text beside a SMILES is read from it. * marks the point of attachment. ξ: configuration not given here. ξOrn(4,5-diOH) = O=C(C(CC(O)C(O)N[*:3])N[*:1])[*:2]; ξhTyr(βξ-OH,γξ-OH) = NC(C(=O)O)C(O)C(O)c1ccc(O)cc1; X1 = O=C(C1C(O)C(CO)CN1[*:1])[*:2]; Palmitoyl = CCCCCCCCCCCCCCCC(=O)*; Hyp = O=C(O)[CH]1C[CH](O)CN1

In the case of `C[C@@H]1[C@H](O)[C@@H](C)/C=C/C=C/C=C/C=C/C=C/C=C/C=C/[C@H](O[C@@H]2O[C@H](C)[C@@H](O)[C@H](N)[C@@H]2O)C[C@@H]2O[C@](O)(C[C@@H](O)C[C@@H](O)[C@H](O)CC[C@@H](O)C[C@@H](O)CC(=O)O[C@H]1C)C[C@H](O)[C@H]2C(=O)O` [Amphotericin B, reference compound], the “Minimum Inhibitory Concentration” value in the assay with Candida parasilopsis stood at 0.01 µg/mL; in the assay with Histoplasma capsulatum it was 0.01 µg/mL; in the assay with Candida albicans, 0.04 µg/mL; in the assay with Cryptococcus neoformans, 0.04 µg/mL; in the assay with Aspergillus fumigatus it was 0.03 µg/mL.

As for `CCCCCCCCCCCCCCCC(=O)NC1CC(O)C(O)NC(=O)C2C(O)C(CO)CN2C(=O)C(CCC(N)=O)NC(=O)C(C(O)C(O)c2ccc(O)cc2)NC(=O)C2CC(O)CN2C(=O)C(C(C)O)NC1=O` (stereo not drawn) [Cryptocandin] (Palmitoyl-[ξOrn(4,5-diOH)]T[Hyp][ξhTyr(βξ-OH,γξ-OH)]Q[X1]; lactam 1-C; configuration not given here), the “Minimum Inhibitory Concentration” value was 2.5 µg/mL in the assay on Candida parasilopsis; 0.01 µg/mL with Histoplasma capsulatum; 0.03 µg/mL in the assay with Candida albicans; more than 20 µg/mL in the assay with Cryptococcus neoformans; more than 20 µg/mL in the assay on Aspergillus fumigatus. The “results on nail and skin infections” value with nail and skin infections was “promising results”. The “effect on fungus (in words)” value in the assay on Cryptococcus neoformans and with Aspergillus fumigatus was “little effect” each time.

Consider Echinocandin B [reference compound], for which the “Minimum Inhibitory Concentration” value in the assay with Candida albicans was 0.3 µg/mL; in the assay on Cryptococcus neoformans, more than 20 µg/mL; in the assay with Aspergillus fumigatus, more than 20 µg/mL.
